Source: US5792457A, “Antibody recognizing endothelial cell ligand for leukocyte CR3” (priority 1995, dated 1998)

Legend:
CD11b/CD18 = target: T1, CD11b/CD18 (Homo sapiens, UniProt P05107+P11215); assay: Downmodulation of CD11b/CD18 on macrophages (binding of C3bi-coated erythrocytes); assay type: cell-based; conditions: peptides 0.5 mM
T1 construct: peptide-coated wells, C3bi-erythrocyte rosetting
Description: FIG. 27 is a bar graph representation of the downmodμlation of CD11b/CD18 by FHA-peptides. mAb IB4 (50 μg/ml) served as a positive control. Data represent means±standard deviations of triplicate experiments with 6 wells/peptide.
Human monocytes were purified from buffy coats on Percoll gradients and cultured in 12.5% human serum in Teflon beakers. Macrophages were harvested from Teflon beakers after 6-8 days and suspended in HAP buffer. Terasaki wells were coated with 5 μl of peptides (0.5 mM) or anti-CD18 mAb IB4 (50 μg/ml). Control wells were coated with HAP. After 2 hours of incubation at RT, 5 μl of macrophages (5×10^5 /ml HAP) were added and allowed to spread for 45 mins. at 37° C. […] IgM-coated erythrocytes in buffer served as negative control. After washing, the number of erythrocytes bound per 100 leukocytes (adherence index) was quantitated visually under an inverted microscope.

cerebral infarct = assay: Rat transient middle cerebral artery occlusion (MCAO): infarct volume; assay type: in vivo, male Wistar rats; conditions: 50 nmol i.v. at reperfusion then 150 nmol i.p.; 2 hour MCAo, 2 day survival
[1] = tested on: blood-brain barrier permeability; assay: Rat meningitis model (LOS): blood-brain barrier permeability (125I-albumin); assay type: in vivo, female Wistar rats; conditions: for BBB permeability: percent of radioactivity in whole blood present in CSF
Description: (§1) Briefly, anesthetized female Wistar rats were placed under a micromanipulator and inoculated intracisternally with a 25 gauge needle. After removal of 50 μl of CSF (without visible blood contamination), rats were inoculated intracisternally with 50 μl (20 ng) of LOS using a 1 ml syringe with a 25 gauge needle. Ten to fifteen minutes after inoculation with LOS, the rats were treated by intravenous administration of the test substance: a solution of an FHA peptide in PBS, a solution of a control peptide in PBS, or an equal volume of PBS alone.
(§2) Three hours after LOS inoculation, 5 μCi of ^125 I-radiolabelled albumin in 50 μl normal saline was administered intravenously. One hour later, CSF was collected via intracisternal puncture and blood samples were collected via intracardiac puncture. CSF leukocytosis was determined by manually counting white blood cells using a hemacytometer, and blood-brain barrier permeability was determined as the percent of radioactivity in whole blood that was present in the CSF. Blood samples were obtained immediately prior to inoculation, immediately prior to treatment, and at 4 hours post-inoculation for determination of peripheral white blood cell concentrations.

[2] = tested on: peripheral white blood cells; assay: Rat meningitis model: peripheral white blood cell concentrations; assay type: in vivo, female Wistar rats; conditions: following i.v. administration
Description: as §2

Factor X binding to CR3 = conditions: cited from earlier work
[3] = Stability of FHA II peptide in 50% rabbit plasma; assay type: in vitro ADME; conditions: 37° C.
Description: To determine the stability of the FHA II peptide, the unmodified or the acetylated-amidated peptide were incubated in 50% rabbit plasma at 37° C.

[4] = ciliary extracts; cited from earlier work
[5] = tested on: recognition of C3bi by antibody 12.1F9; assay: Inhibition of binding of 12.1F9 to E^C3bi by peptides; design: species or system human; conditions: peptides 50 μg/ml
Text: Values are normalized to a control value of 100; data are expressed as the mean±SD of 6 experiments with duplicate wells.

[6] = tested on: leukocyte migration into the CSF; assay: Anti-inflammatory activity in rabbits with meningitis (FIG. 5, FIG. 6); assay type: in vivo, rabbit; conditions: intravenous
Text: This inhibitory activity implies that antibodies to FHA which bind to any of the three Factor X regions would disturb leukocyte recruitment. This is to be distinguished from anti-FHA antibodies that bind to endothelia by recognizing an integrin receptor which is an endothelial cell component (see below). […] This is shown in FIG. 6 where various doses of antibody were given to rabbits and the number of leukocytes recruited into the cerebrospinal fluid in response to pneumonoccal meningitis was determined.

CSF leukocytosis = assay: Rat meningitis model (LOS): CSF leukocytosis; assay type: in vivo, female Wistar rats; conditions: 600 nmol i.v., 4 hours after LOS
Description: The experiments were performed according to established protocols (Wispelway et al., 1988, J. Clin. Invest., 82: 1339-1346). Purified Haemophilus influenzae type b strain DL42 lipooligosaccharide (LOS) was prepared for inoculation by sonication for 30 minutes, dilution to the desired concentration (20 ng/50 μl) in normal saline or PBS, and sonication for an additional 15 to 30 minutes just prior to use.
as §1, §2

T1 sequence (P05107 23-769, other chains not shown): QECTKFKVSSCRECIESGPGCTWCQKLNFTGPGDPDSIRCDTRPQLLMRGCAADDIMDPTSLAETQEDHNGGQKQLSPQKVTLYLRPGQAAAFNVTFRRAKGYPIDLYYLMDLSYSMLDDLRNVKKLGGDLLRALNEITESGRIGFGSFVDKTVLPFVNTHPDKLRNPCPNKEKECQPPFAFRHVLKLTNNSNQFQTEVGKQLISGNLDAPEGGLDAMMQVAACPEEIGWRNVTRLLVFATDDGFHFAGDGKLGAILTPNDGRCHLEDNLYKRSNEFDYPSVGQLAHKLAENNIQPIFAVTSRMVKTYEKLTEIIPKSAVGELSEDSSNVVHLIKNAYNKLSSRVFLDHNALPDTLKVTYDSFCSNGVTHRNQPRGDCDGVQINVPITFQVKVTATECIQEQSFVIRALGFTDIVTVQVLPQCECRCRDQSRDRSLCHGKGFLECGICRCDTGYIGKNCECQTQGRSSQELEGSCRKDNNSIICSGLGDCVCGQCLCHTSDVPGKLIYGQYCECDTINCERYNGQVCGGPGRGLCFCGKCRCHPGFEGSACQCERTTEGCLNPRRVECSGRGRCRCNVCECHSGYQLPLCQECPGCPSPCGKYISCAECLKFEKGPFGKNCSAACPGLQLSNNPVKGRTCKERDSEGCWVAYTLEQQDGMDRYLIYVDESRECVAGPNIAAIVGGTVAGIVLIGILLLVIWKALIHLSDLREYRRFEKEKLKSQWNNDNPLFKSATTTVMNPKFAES

GTLLLRNDALTENGTVTISA [FHA Cd]
downmodulation of CD11b/CD18 (in words) (CD11b/CD18): no significant effect

AADPHQGVLAQGDIIMDAKG [FHA Cc]
downmodulation of CD11b/CD18 (in words) (CD11b/CD18): no significant effect

RADPHQGVLAQGDIIMDAKG [FHA Cb]
downmodulation of CD11b/CD18 (in words) (CD11b/CD18): no significant effect

RGDPHQGVLAQGDIIMDAKG [FHA Ca]
reduction of binding of C3bi-coated erythrocytes to macrophages (CD11b/CD18; IB4 50 μg/ml): 61±7% | volume of the infarct (cerebral infarct): approximately 25 % of the hemisphere | BBB permeability ([1]; 50 nmol): 5.8 ± 2.7% | BBB permeability ([1]; 100 nmol): 3.0 ± 2.2% | Inhibition of blood-brain barrier permeability (in words) ([1]; rat, in vivo): appeared to be dose dependent | neutropenia [2]: No neutropenia was observed

GYDTKQEDG [Factor X II]
inhibition of binding of CR3 bearing cells to Factor X (in words) (Factor X binding to CR3): competitively inhibit the binding of CR3 bearing tissue culture cells to purified Factor X

ETKEVDG [FHA II]
time in which concentration decreased by half [3]: 4 to 6 h

native FHA: Filamentous hemagglutinin, 220kD surface associated protein of Bordetella pertussis (List Biologicals)
binding to lactosylceramide (in words) [4]: binds to lactosylceramide | block of binding of 12.1F9 to E^C3bi (in words) [5]: blocked binding almost completely | Adherence index ([5]; normalized to control value of 100, 6 experiments): 16 ± 16 | antiinflammatory activity in meningitis (in words) [6]: antiinflammatory activity in the sense of inhibiting leukocyte migration into the CSF

Ac-ETKEVDG-NH2 [Acetyl/Amide-FHA II]
Leukocytosis (CSF) (CSF leukocytosis): approximately 10,000 cells/ml | Leukocytosis (CSF) (CSF leukocytosis; listed as ac/am FHA II): 10,500 ± 8523 cells/ml | stability in plasma (in words) ([3]; 48 hours): remained unchanged over 48 hours | neutropenia [2]: No neutropenia was observed
